Data taken from US20230293518A1 (Edgewise Therapeutics, Inc., priority 2020, published 2023).

Columns and labels:
[1] = test system: embryos from zebrafish model of DMD; conditions: Li and Arner, PLoSONE, 2015; cited from earlier work
[2] = target: skeletal myofibrils (myosin ATPase); assay: Skeletal Myofibril ATPase Assay; format: biochemical; conditions: Table 4C
How it was run: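 Skeletal myofibril ATPase activity was measured via PK-LDH coupling, following NADH loss at 340 nm every 1.5-2 min for 45 min in PIPES/CaCl2/EGTA pCa buffer, pH 7.0. Max−Min slopes were normalised to 1% DMSO vehicle (100%) and fit to a four-parameter logistic (bottom ≥0) for IC50.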

SMILES | protection of muscles from pathological muscle derangement [1] | IC50 [2]
Cc1ccc(S(=O)(=O)NCc2ccccc2)cc1 [BTS, N-benzyl-p-tolyl-sulfonamide] | protect muscles from pathological muscle derangement | 
O=C(Cn1nc(-c2ccccc2)ccc1=O)Nc1ccc2[nH]ccc2c1 [IIIc-49, N-(1H-indol-5-yl)-2-(6-oxo-3-phenylpyridazin-1(6H)-yl)acetamide] |  | < 10 µM
O=C(Cn1nc(-c2ccccc2)ccc1=O)Nc1cccc2[nH]ccc12 [IIIc-50, N-(1H-indol-4-yl)-2-(6-oxo-3-phenylpyridazin-1(6H)-yl)acetamide] |  | 10 to 100 µM
O=C(Cn1nc(-c2ccccc2)ccc1=O)NC1(c2ccccc2)CCC1 [IIIc-51, 2-(6-oxo-3-phenylpyridazin-1(6H)-yl)-N-(1-phenylcyclobutyl)acetamide] |  | < 10 µM
O=C(Cn1nc(-c2ccccc2)ccc1=O)Nc1ccccc1C(F)(F)F [IIIc-52, 2-(6-oxo-3-phenylpyridazin-1(6H)-yl)-N-(2-(trifluoromethyl)phenyl)acetamide] |  | 10 to 100 µM
CC(CCNC(=O)Cn1nc(-c2ccccc2)ccc1=O)c1ccccc1 (stereo not shown) [IIIc-53, 2-(6-oxo-3-phenylpyridazin-1(6H)-yl)-N-(3-phenylbutyl)acetamide] |  | 10 to 100 µM
O=C(Cn1nc(-c2ccccc2)ccc1=O)Nc1ccc(Cl)cc1Cl [IIIc-54, N-(2,4-dichlorophenyl)-2-(6-oxo-3-phenylpyridazin-1(6H)-yl)acetamide] |  | 10 to 100 µM
CCC1CCC(CNC(=O)Cn2nc(-c3ccccc3)ccc2=O)CC1 (stereo not shown) [IIIc-55, N-((4-ethylcyclohexyl)methyl)-2-(6-oxo-3-phenylpyridazin-1(6H)-yl)acetamide] |  | 10 to 100 µM
O=C(Cn1nc(-c2ccccc2)ccc1=O)Nc1ccccc1Cl [IIIc-56, N-(2-chlorophenyl)-2-(6-oxo-3-phenylpyridazin-1(6H)-yl)acetamide] |  | 10 to 100 µM
CC[C@H](C)NC(=O)Cn1nc(-c2ccccc2)ccc1=O [IIIc-57, (S)-N-(sec-butyl)-2-(6-oxo-3-phenylpyridazin-1(6H)-yl)acetamide] |  | 10 to 100 µM
COc1ccccc1NC(=O)Cn1nc(-c2ccccc2)ccc1=O [IIIc-58, N-(2-methoxyphenyl)-2-(6-oxo-3-phenylpyridazin-1(6H)-yl)acetamide] |  | 10 to 100 µM
COc1ccc(Cl)cc1NC(=O)Cn1nc(-c2ccccc2)ccc1=O [IIIc-62, N-(5-chloro-2-methoxyphenyl)-2-(6-oxo-3-phenylpyridazin-1(6H)-yl)acetamide] |  | > 100 µM
CC(C)NC(=O)Cn1nc(-c2ccccc2)ccc1=O [IIIc-63, N-isopropyl-2-(6-oxo-3-phenylpyridazin-1(6H)-yl)acetamide] |  | > 100 µM
O=C(Cn1nc(-c2ccccc2)ccc1=O)Nc1ccc2c(c1)OCCO2 [IIIc-64] |  | > 100 µM
O=C(Cn1nc(-c2ccccc2)ccc1=O)NC1CC1 [IIIc-65, N-cyclopropyl-2-(6-oxo-3-phenylpyridazin-1(6H)-yl)acetamide] |  | > 100 µM
O=C(Cn1nc(-c2ccccc2)ccc1=O)Nc1ccccc1F [IIIc-66, N-(2-fluorophenyl)-2-(6-oxo-3-phenylpyridazin-1(6H)-yl)acetamide] |  | > 100 µM
